Experimental data: patent US11116799B2, “Generation of uniform hepatocytes from human embryonic stem cells by inhibiting TGF-beta and methods of maintaining hepatic cultures” (Wisconsin Alumni Research Foundation, priority 2016, dated 2021)
Several values for one entry are separate records, joined by “and”; a condition that tells them apart may be missing. Equal values may be shown once. Entries after “also recorded” stand apart in the source; their conditions may differ.

Assays:
HepG2 cells [1] = conditions: HepG2 treated 72 hours, 10 uM APAP for 1 hour
Source text: Samples for LC/MS/MS analysis were processed by solid-phase extraction, and calibrant curves (7 points) for all compounds were generated by spiking standards (Sigma) in E6 media and processed in parallel with samples. An internal standard of deuterated naproxen was included for all analytes. Samples were run on a 0.2×100 mm Cortecs C18 column (Waters Corporation, Milford Mass.) using a Waters Acquity UPLC system coupled to an AB/Sciex Q-Trap 5500 hybrid triple quadrupole instrument (Framingham Mass.). Analytes were detected using multiple-reaction-monitoring with three transitions for each compound being monitored. Each sample was analyzed in triplicate with blanks between each sample analysis. Quantitation was based on area under the curve of the analyte relative to the internal standard and was modeled with a quadratic fit with 1/× weighting using the MultiQuant software (Sciex, Framingham Mass.). […] Average calculated concentrations for each analyte are reported. […] Background was determined by measuring metabolites in media incubated with acetaminophen only for 1 hour and any samples below background were considered nil.
(§1) To test whether the upregulation of metabolic genes at the mRNA level translated into functional metabolic improvement, acetaminophen (APAP) metabolism was assessed by LC/MS/MS.

[2] = test system: primary human hepatocytes (PHHs); assay: RNA-Seq gene expression in MAPK inhibitor treated primary human hepatocytes; assay type: cell-based
Experimental: […]. […] […].
For small RNA-Seq profiling, hepatocytes from Hu8082 were used; for de-differentiation time course and let-7c transduction, hepatocytes from Hu4260, Hu8135, Hu4279 and Hu8137 were used. For both experiments, cells from all 4 donors were mixed in equal numbers after assessment of viability. For small molecule treatments, batch Hu4260 was used.
RNA-Seq was performed by LM-Seq (Illumina).
For small molecule treatments, batch Hu4260 was used.
. To ascertain that the increase in metabolic enzymes took place through specific MAPK inhibition, PHHs were treated with a second MAPK inhibitor, PD0325901, for 72 hours, followed by RNA-Seq analysis (Supplementary Table 4). […].

[3] = test system: ALB-GFP/tdTomato-AFP marker cell line; conditions: marker line differentiated with TGFB and NOTCH inhibition in E6, then treated 72 hours
Source text: We next differentiated the ALB-GFP/tdTomato-AFP marker cell line to hepatocytes with TGFB and NOTCH inhibition in defined E6 medium.

CYP2C9 = conditions: HepG2, treated 72 hours
Experimental: (§2) CYP2C9 and 3A4 metabolism were measured using CYP450 Glo assay (Promega). In short, substrates were added to the media and incubated for 72 hours and the amount of metabolites generated were measured by adding the detection reagent and quantifying the luminescence in a Tecan® plate reader. Background was measured by incubating the substrates for 72 hours in the same media without cells. Cell counting for proliferation assay was carried out by dye exclusion in an automated cell counter (ThermoFisher).
CYP2C9 and 3A4 metabolism were measured using CYP450 Glo assay (Promega). Substrates were added to the media and incubated for 72 hours and the amount of metabolite generated were measured by adding the detection reagent and quantifying the luminescence in a Tecan plate reader. Background was measured by incubating the substrates for 72 hours in the same media without cells.

[4] = test system: primary mouse hepatocytes; assay: RNA-Seq gene expression in primary mouse hepatocytes treated with kinase inhibitors; conditions: 10 μM, 72 hours
Source text: The next step was to determine if the PI3/Akt and MAPK pathways are involved in maintenance of hepatocyte maturation. We investigated whether small molecule inhibition of these pathways would mimic let-7's action and reduce the loss of mature function of hepatocytes in culture after removal from their microenvironment. […] Then, expression of the top ten important metabolic enzymes (CYPs, UGTs and transporters) by RNA-Seq with uncultured fresh hepatocytes and control vehicle hepatocytes treated for 72 hours was compared.
Hepatocytes from 6 black mice livers were isolated by perfusion following standard protocol and cultured on Matrigel coated plates in hepatocyte growth medium (Promocell). Whole developing livers from 6 black mice were used for RNA isolation with Trizol for let-7c measurements.
(§3) Total RNA (including microRNA) from all cells, which were not mentioned otherwise, were isolated using RNAeasy Plus Kit […] following manufacturers protocol. RNA-Seq was performed by LM-Seq (Illumina). MicroRNAs were sequenced using Illumina's small RNA sequencing kit. Expression of let-7 and U6 snoRNA were measured by quantitative PCR using ABI's kit. Let-7c expression levels were normalized by U6 snoRNA expression (RQ or relative quantity values, error bars representing standard error, RQ min and RQ max).
Multiple batches of cryopreserved induction qualified human hepatocytes (each batch being from one donor) were purchased from Life Technologies and cultured on Matrigel coated plates in hepatocyte growth medium (PromoCell). For dedifferentiation studies, hepatocytes from batches Hu4260, Hu8135, Hu4279 and Hu8137 were used after mixing equal number of live cells. For small molecule treatments, batch Hu4260 was used. Mouse hepatocytes were isolated from Black 6 mice livers by perfusion following standard protocol and cultured on Matrigel coated plates in hepatocyte growth medium (Promocell).
(§4) Total RNA were isolated using RNAeasy Plus Kit (Qiagen) following manufacturers protocol and qualified with the Life Technologies Qubit fluorometer and Agilent Bioanalyzer. […] Final indexed cDNA libraries were pooled and sequenced on an Illumina HiSeq 2500. Base-calling and demultiplexing were performed using Casava (v1.8.2). Sequences were filtered and trimmed to remove low quality reads, adapters, and other sequencing artifacts. The remaining reads were aligned to a reference database comprising only RefSeq-validated transcripts (i.e., assigned an “NM_” accession). Mouse samples were aligned to the mm10 assembly, and human samples were aligned to the hg19 assembly. […] Reads with more than 200 alignments were excluded from further analysis. […] All RNA-seq results have been deposited at NCBI's GEO under Accession No. GSE94353.
The inventors next investigated whether the MAPK and PI3/Akt pathways contributed to the dedifferentiation of hepatocytes. […] Rapamycin was included as a control, which is an inhibitor of the mTOR pathway, a serine/threonine kinase involved in cell signaling not identified as a key pathway in our analysis.

HepG2 cells [5] = test system: HepG2 cells
Experimental: Both types of cells were treated with a vehicle or small molecule for 72 hours and genes were quantified using RNA-Seq.
as §3, §4, §1

HepG2 cells [6] = assay: HepG2 viability / cell growth (cell counting by dye exclusion); assay type: cell-based, human; conditions: HepG2, 72 hours, compared to vehicle control
Experimental: as §2

[7] = primary human hepatocytes, treated 72 hours

For `N#CC(=C(/N)Sc1ccccc1N)/C(C#N)=C(\N)Sc1ccccc1N` [U0126], the “formation of APAP-glucuronide” value (HepG2 cells [1]) was “induced the formation”, the “formation of APAP-glutathione” value (HepG2 cells [1]) was “induced the formation” and the “formation of APAP-sulphate” value (HepG2 cells [1]) was “increased formation”. For the same molecule, the “rate of formation of all APAP metabolites versus PHHs” value (HepG2 cells [1]) was “comparable rate to mature adult PHHs”, the “expression of hepatic nuclear receptors (CAR, FXR, LXR, PPAR, PXR, RAR), change >3-fold” value ([2]; PHHs) was “did not significantly change” and the AFP gene expression [2, 7] was 5.79 transcripts per million. For the same molecule, the ALB gene expression [2, 7] was 1360.25 transcripts per million, the CD81 gene expression [2, 7] was 417.56 transcripts per million and the CYP1A2 gene expression [2, 7] was 68.21 transcripts per million. For the same molecule, the CYP1B1 gene expression [2, 7] was 30.96 transcripts per million, the CYP2C9 gene expression [2, 7] was 77.04 transcripts per million and the CYP2D6 gene expression [2, 7] was 1.81 transcripts per million. It also gave a CYP2E1 gene expression [2, 7] of 17.69 transcripts per million, a CYP3A4 gene expression [2, 7] of 43.64 transcripts per million and an SLC10A1 gene expression [2, 7] of 0.00 transcripts per million. The SLCO1B1 gene expression [2, 7] was 153.15 transcripts per million, the SLCO1B3 gene expression [2, 7] was 14.65 transcripts per million and the UGT1A1 gene expression [2, 7] was 47.57 transcripts per million. The UGT1A6 gene expression [2, 7] was 671.53 transcripts per million, the UGT1A9 gene expression [2, 7] was 81.41 transcripts per million and the “cells expressing both ALB and AFP” value [3] was 100%. For the same molecule, the “CYP2C9 activity (luminescent metabolite formation), increase over vehicle control” value (CYP2C9) was > 10 fold and 10 fold, the ABCC2 gene expression [4] was 415.86 transcripts per million and the CYP1A2 gene expression [4] was 1271.98 transcripts per million. It also gave a CYP2C9 gene expression [4] of 2676.68 transcripts per million, a CYP2E1 gene expression [4] of 217.96 transcripts per million and a CYP3A11 gene expression [4] of 632.32 transcripts per million. The CYP3A25 gene expression [4] was 112.18 transcripts per million, the UGT1A6A gene expression [4] was 232.80 transcripts per million and the UGT1A9 gene expression [4] was 184.63 transcripts per million. For the same molecule, the UGT1A10 gene expression [4] was 2.44 transcripts per million, the UGT2B5 gene expression [4] was 995.27 transcripts per million and the “downregulation of fetal gene AFP compared with untreated control” value (HepG2 cells [5]; HepG2, 72 hours) was “over 3 orders of magnitude”. For the same molecule, the AFP gene expression (HepG2 cells [5]; HepG2, treated 72 hours) was 4.74 transcripts per million, the ALB gene expression (HepG2 cells [5]; HepG2, treated 72 hours) was 2083.6 transcripts per million and the CD81 gene expression (HepG2 cells [5]; HepG2, treated 72 hours) was 634.68 transcripts per million. It also gave a CYP1A2 gene expression (HepG2 cells [5]; HepG2, treated 72 hours) of 0.68 transcripts per million, a CYP1B1 gene expression (HepG2 cells [5]; HepG2, treated 72 hours) of 3.07 transcripts per million and a CYP2C9 gene expression (HepG2 cells [5]; HepG2, treated 72 hours) of 33.45 transcripts per million. For the same molecule, the CYP2D6 gene expression (HepG2 cells [5]; HepG2, treated 72 hours) was 4.05 transcripts per million, the CYP2E1 gene expression (HepG2 cells [5]; HepG2, treated 72 hours) was 14.61 transcripts per million and the CYP3A4 gene expression (HepG2 cells [5]; HepG2, treated 72 hours) was 13.37 transcripts per million. For the same molecule, the SLC10A1 gene expression (HepG2 cells [5]; HepG2, treated 72 hours) was 10.57 transcripts per million, the SLCO1B1 gene expression (HepG2 cells [5]; HepG2, treated 72 hours) was 120.17 transcripts per million and the SLCO1B3 gene expression (HepG2 cells [5]; HepG2, treated 72 hours) was 18.83 transcripts per million. For the same molecule, the UGT1A1 gene expression (HepG2 cells [5]; HepG2, treated 72 hours) was 16.61 transcripts per million, the UGT1A6 gene expression (HepG2 cells [5]; HepG2, treated 72 hours) was 835.05 transcripts per million and the UGT1A9 gene expression (HepG2 cells [5]; HepG2, treated 72 hours) was 99.71 transcripts per million. For the same molecule, the “expression of hepatic nuclear receptors (CAR, FXR, LXR, PPAR, PXR, RAR), change >3-fold” value (HepG2 cells [5]; HepG2 cells) was “did not significantly change” and the “HepG2 viability / cell growth” value (HepG2 cells [6]) was “significant inhibition of cell growth; also recorded: increased cell death and growth arrest”.
